Tests used:
active EAE = active EAE clinical score (Example 1); assay type: in vivo, C57BL6 female mice; conditions: high dose (8 mg/kg DPN, 10.8 mg/kg Compound 1), every other day, day 12 to day 48; FIG. 1A
adoptive EAE = adoptive EAE clinical score (Example 2); assay type: in vivo, mice; conditions: FIG. 2A; for EAE clinical score, dose dependence: high (8 mg/kg/day) and low (2 mg/kg/day) dose
Source text: Active EAE induction in Example 1 uses pertussis toxin to artificially make the BBB more permeable and permit more infiltration of activated Th1/Th17 immune cells into the CNS. […] Thus, an alternative EAE induction method was used. Adoptive EAE uses MOG primed and activated immune cells from donor immunized mice for subsequent transfer into recipient mice with no administration of pertussis toxin. Thus, the blood brain barrier interactions in adoptive EAE are more physiologic than in active EAE. […] This experiment was larger since 2 sets of mice (donors and recipients) were needed and 2 doses were used, making the adoptive EAE experiment 4 times larger than the active EAE experiment 1. […] Brain and spinal cord levels were undetectable 24 hours after dosing.

[1] = DPN concentration 24 hours after dosing in adoptive EAE mice (Example 2); assay type: in vivo
Protocol: This experiment was larger since 2 sets of mice (donors and recipients) were needed and 2 doses were used, making the adoptive EAE experiment 4 times larger than the active EAE experiment 1.
Brain and spinal cord levels were undetectable 24 hours after dosing.

[2] = tissue concentrations of DPN in healthy mice (Example 3); assay type: in vivo; conditions: for levels of DPN in plasma, brain and spinal cord, compared to dosing with DPN: molar equivalent doses
Protocol: Compound 1 levels were not measured. […] At 12 hours, only high dose Compound 1 was detectable in plasma.
This experiment was repeated and the data above was confirmed.
This experiment was repeated with fresher standards and faster freezing of tissues once obtained from the mouse sacrifice.

[3] = concentrations over time in plasma, spinal cord and brain, adoptive EAE setup (Example 4); assay type: in vivo, mice; conditions: for persistence in brain and spinal tissue: 12 hours
Protocol: The experimental setup and monitoring was the same as in Example 2. […] Both Compounds 1 and 2 persisted in brain and spinal tissue at 12 hours.

[4] = DPN concentration in plasma, spinal cord and brain of active EAE mice (Example 1); conditions: three hours after the end of disease; FIG. 1B-1D
EAE = conditions: cited from earlier work
multiple sclerosis = conditions: cited from earlier work
[5] = MS patients, phase 2 clinical trial

For CC(=O)Oc1ccc(C[C@@H](C#N)c2ccc(OC(C)=O)cc2)cc1 [Compound 1], the “effect on EAE disease progression (EAE clinical score)” value (active EAE) was “protective effects”, the “efficacy on EAE clinical score compared to DPN” value (adoptive EAE; adoptive EAE) was “more efficacy” and the “EAE clinical score, dose dependence” value (adoptive EAE) was “dose responses”. For the same compound, the “brain and spinal cord levels” value [1] was “undetectable”, the “plasma concentration of DPN, Compound 1 vs DPN” value ([1]; FIG. 2B) was “no difference” and the “levels of DPN in plasma, brain and spinal cord, compared to dosing with DPN” value ([2]; 3 and 6 hours) was “higher”. For the same compound, the “levels of DPN in plasma, brain and spinal cord, compared to dosing with DPN” value ([2]; 15 minutes) was “lower”, the “DPN level in plasma” value ([2]; 12 hours, high dose) was “detectable” and the “persistence in brain and spinal tissue” value [3] was “persisted”. For the same compound, the “amounts of DPN in plasma, spinal cord tissue and brain tissue” value [4] was “improvement in maintaining effective amounts of DPN”.

For CCC(=O)Oc1ccc(CC(C#N)c2ccc(OC(=O)CC)cc2)cc1 (stereo not drawn) [Compound 2], the “persistence in brain and spinal tissue” value [3] was “persisted” and the “concentration in plasma, spinal cord and brain tissue, among DPN, Compound 1 and Compound 2” value ([3]; first 6 hours after treatment, FIG. 7A-7C) was “highest concentration”.

In the case of N#CC(Cc1ccc(O)cc1)c1ccc(O)cc1 (stereo not drawn) [DPN, 2,3-bis(4-hydroxyphenyl)propanenitrile, reference compound], the “effect on EAE disease progression (EAE clinical score)” value (active EAE) is reported as “protective effects”, the “EAE clinical score, dose dependence” value (adoptive EAE) is reported as “dose responses” and the “brain and spinal cord levels” value [1] is reported as “undetectable”. The “efficacy in EAE of dosing regimen” value (EAE; dosing every two days, shown in the past) was “efficacious”, the “clinical EAE disease severity” value (EAE; known treatment of EAE) was “reduces clinical EAE disease severity” and the “tolerability of dosing regimen” value (EAE; mouse, in vivo) was “tolerable”.

In the case of C[C@]12CC[C@@H]3c4ccc(O)cc4CC[C@H]3[C@@H]1C[C@@H](O)[C@@H]2O [estriol], the fatigue (multiple sclerosis; [5]) is given as “reduced fatigue”, the relapses (multiple sclerosis; [5]) is given as “reduced relapses” and the “cortical gray matter atrophy” value (multiple sclerosis; estriol as compared to placebo treated MS patients) is given as “spared”.
